Structures can show the parent of a compound that is named as a salt. Where two headings read alike, the source gives them in different places.
What was measured:
opioid receptor = biological target: T1, opioid receptor (Mus musculus, UniProt P42866); experiment: mouse writhing analgesis test: block of morphine-induced analgesia; type: in vivo, CF-1 male mice; design: unit not given here; conditions: dose of antagonist that reduced the inhibition of writhing produced by 1.25 mg/kg morphine sulfate to 50%, subcutaneous, 20 min before acetic acid
T1 construct: Five CF-1 male mice (Charles River, Portage, Mich.); from tissue; host or cells: living CF-1 male mice (in vivo test; endogenous receptor)
T1 sequence (P42866 whole entry): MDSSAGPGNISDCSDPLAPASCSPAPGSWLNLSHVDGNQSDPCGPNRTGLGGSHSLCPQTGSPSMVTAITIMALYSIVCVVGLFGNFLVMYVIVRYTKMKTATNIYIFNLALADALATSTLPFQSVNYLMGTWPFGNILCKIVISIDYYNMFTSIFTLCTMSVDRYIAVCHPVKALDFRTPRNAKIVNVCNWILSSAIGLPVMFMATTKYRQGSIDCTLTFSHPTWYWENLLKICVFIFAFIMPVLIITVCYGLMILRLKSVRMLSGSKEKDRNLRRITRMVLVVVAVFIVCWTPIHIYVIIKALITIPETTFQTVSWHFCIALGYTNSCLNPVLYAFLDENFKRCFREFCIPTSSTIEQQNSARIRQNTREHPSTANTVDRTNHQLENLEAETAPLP
Description: In order to determine in vivo opioid receptor antagonism, the mouse writhing analgesis test was used. Test compounds were measured for their ability to block morphine-induced analgesia.
Five CF-1 male mice (Charles River, Portage, Mich.), weighing approximately 20 g after being fasted overnight, were observed simultaneously for the writhing response. The writhing response was defined as a contraction of the abdominal musculature, followed by the extension of the hind limbs, and was induced by the intraperitoneal adminstration of 0.6% acetic acid in a volumne of 1 ml/100 g body weight. The observation period was 10 min. in duration, beginning 5 min. after injection of acetic acid. The percent inhibition of writhing was calculated from the average number of writhes in the control (non-drug) group. Each data point is the mean (±standarderror) for five mice. The ED50 was defined as the dose of agonist that inhibited mean writhing by 50%. […] Each mouse was only used once. All drugs were administered subcutaneously (1 ml/100 g bwt) 20 min. before the injection of acetic acid.

[1] = biological target: T2, peripheral opioid receptors (Mus musculus, UniProt P42866); experiment: precipitated diarrhea in morphine-maintained mice (peripheral opioid activity) and comparison with the writhing test; type: in vivo; design: ED50 (diarrhea): unit not given beside the values; conditions: for Ratio (AD50 mouse writhing test / ED50 mouse diarrhea test): higher ratio = greater relative antagonism of peripheral opioid receptors; for ED50: mouse, 0.5 h; for ED50 / ED50 (diarrhea): morphine-maintained mice, antagonist subcutaneous or oral, 30 min observation; for ED50 (diarrhea): 30 min
T2 construct: Mice maintained (6 mice/cage) on 0.01M saccharin water with 1 g/1 morphine sulfate; from tissue; host or cells: living morphine-maintained mice (in vivo test; endogenous receptor)
T2 sequence (P42866 whole entry): as above
Description: Determinations of peripheral opioid activity were conducted. Mice maintained (6 mice/cage) on 0.01M saccharin water with 1 g/1 morphine sulfate for a minimum of 10 days with mice averaging 3.0^+ g water/mouse/day for at least three days are used as subjects. The morphine water was removed 45 min. prior to injection with the proposed opioid antagonist. Initial testing consisted of 5 mice/dose of compound. The antagonist was given by the subcutaneous or oral, route of administration,and the mice were placed in 11-14"×4 7/12 I.D. clear plastic cylinders with white paper towels used for a floor.
The mice were then monitored visually for 30 minutes post-injection for the presence of jumping and of diarrhea. Jumping was scored as positive if at least one jump occurred in 30 min. Diarrhea was scored as positive when feces were moist enough to stain the white paper at the base of the cylinder. After 30 minutes of testing, the mice were placed back in original cages, put back on morphine water, and not tested again for 48 hrs. Lower doses of the antagonist compounds were tested until threshold doses for diarrhea were determined. Diarrhea is a peripherally mediated sign of precipitated opiate abstinence.
The extent of the effect on peripheral activity compared to central activity of the present compounds can-be determined by comparing the AD50 for the mouse writhing test with the ED50 for the mouse diarrhea test. The higher the ratio, the greater the relative antagonism of the peripheral opioid receptors by a particular compound.

mu receptor = biological target: T3, mu receptor (Rattus norvegicus, UniProt P33535); experiment: opioid receptor binding assay, [3H] NAL (tritiated naloxone), mu receptor; design: species or system rat (Male Sprague Dawley), brain minus cerebellum
T3 construct: rat whole brain minus cerebellum for mu was homogenized; from tissue; host or cells: brain of male Sprague Dawley rats, whole brain minus cerebellum, homogenate fraction
T3 sequence (P33535 whole entry): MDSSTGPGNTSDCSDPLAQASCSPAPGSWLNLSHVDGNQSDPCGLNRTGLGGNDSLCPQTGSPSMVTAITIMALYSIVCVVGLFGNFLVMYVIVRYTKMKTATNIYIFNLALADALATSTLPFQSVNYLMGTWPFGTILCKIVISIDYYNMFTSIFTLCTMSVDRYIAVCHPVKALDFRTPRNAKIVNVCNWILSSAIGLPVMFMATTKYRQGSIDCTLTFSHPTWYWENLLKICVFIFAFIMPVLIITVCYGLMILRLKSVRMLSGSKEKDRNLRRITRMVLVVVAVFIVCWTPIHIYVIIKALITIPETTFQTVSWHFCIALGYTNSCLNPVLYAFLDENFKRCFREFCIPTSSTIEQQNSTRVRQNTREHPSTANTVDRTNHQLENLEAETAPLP
Description: This assay was conducted by the following procedure.
Male Sprague Dawley rats for mu site experiments were sacrificed via decapitation and the brains were removed. The brain tissue, rat whole brain minus cerebellum for mu was homogenized in a Teflon and glass tissue homogenizer. A supernatant I, pellet IV, fraction was frozen in a nitrogen freezer at 1.33 g/ml concentration and stored for not longer than five weeks prior to use. Pellets were rehydrated with physiological buffer prior to use.
The reaction was initiated by the addition of the resuspended tissue which had been preincubated at 37° C. for 20 minutes. The reaction mixture was incubated in a 37° C. water bath for 20 minutes. The reaction was terminated by rapid filtration, (Brandel Cell Harvestor), through Whatman GF/B glass filters that had been presoaked in Krebs-Hepes buffer pH 7.4. The filters were then washed 2x with 5 ml of ice cold Krebs-Hepes buffer pH 7.4. Washed filters were placed in scintillation vials and 10 ml RedySolv, (Brandel), was added and samples counted in a Searle D-300 beta counter. Means and standard error statistics were calculated for triplicate experimental determinations in certain cases. The incubation time for the reaction mixture was 20 minutes at 37° C.
Ki values were calculated using a minitab statistical program according to the following formula: [formula] wherein IC50 is the concentration at which 50% of the ^3 H ligand is displaced by the test compounds and KD is the dissociation constant for the ^3 H ligand at the receptor site. KD can be determined as described by Bennett, "Methods in Binding Studies", Neurotransmitter Receptor Binding, Yamamura, et al., ed., p. 57-90, Raven Press, N.Y. (1978) incorporated herein by reference.
In the Table, column 1 sets forth the Example Number of the compound evaluated, column 2 the Ki value in nanomolar (nM) at the mu receptor and columns 3 and 4 the percent displacement by the test compound at the indicated concentration, i.e., 10 nm or 100 nm.

[2] = 20 min, read-out: % displacement at 10 nM
[3] = 20 min, read-out: % displacement at 100 nM
[4] = 20 min, read-out: % displacement at 10 nM, 10 nM test compound, [3H] naloxone 0.5 nM
[5] = 20 min, read-out: % displacement at 100 nM, 100 nM test compound, [3H] naloxone 0.5 nM
[6] = [3H] naloxone 0.5 nM, pH 7.4, 37° C., 20 min

Compound	AD50 (opioid receptor)	Ratio (AD50 mouse writhing test / ED50 mouse diarrhea test) [1]	ED50 [1]	Ki (mu receptor)	inhibition at 0.01 µM (mu receptor; [4])	inhibition at 0.1 µM (mu receptor; [5])	Ki (mu receptor; [6])	also measured
CCOC(=O)C(Cc1ccccc1)CN1CC[C@@](C)(c2cccc(O)c2)[C@@H](C)C1 (relative stereo) [Example 4A, trans-4-(3-hydroxyphenyl)-3,4-dimethyl-a-(phenylmethyl)-1-piperidinepropanoic acid, ethyl ester hydrochloride]	1.08	9	0.012 mg/kg	1.38 nM	–	–	–	inhibition at 0.01 µM (mu receptor; [2]): 92%; inhibition at 0.1 µM (mu receptor; [3]): 98%
C[C@H]1CN(CC(Cc2ccccc2)C(=O)O)CC[C@@]1(C)c1cccc(O)c1 (relative stereo) [Example 4B, 4-(3-hydroxyphenyl)-3,4-dimethyl-a-(phenylmethyl)-1-piperidinepropanoic acid monohydrate]	8.90	809	0.011 mg/kg	2.62 nM	–	–	–	inhibition at 0.01 µM (mu receptor; [2]): 83%; inhibition at 0.1 µM (mu receptor; [3]): 97%
CCOC(=O)C(CC1CCCCC1)CN1CC[C@@](C)(c2cccc(O)c2)[C@@H](C)C1 (relative stereo) [Example 5A, 3-(3,4-dimethyl-4-(3-hydroxyphenyl)-1-piperidinyl]-2-(cyclohexylmethyl)propanoic acid ethyl ester hydrochloride]	1.2	20	0.06 mg/kg	13.8 nM	61%	93%	–	–
C[C@H]1CN(CC(CC2CCCCC2)C(=O)O)CC[C@@]1(C)c1cccc(O)c1 (relative stereo) [Example 5B, 3-[3,4-dimethyl-4-(3-hydroxyphenyl)-1-piperidinyl]-2-(cyclohexylmethyl)-propanoic acid monohydrate]	1.6	7	0.24 mg/kg	1.11 nM	93%	99%	–	–
CCOC(=O)C(CCN1CC[C@@](C)(c2cccc(O)c2)[C@@H](C)C1)c1ccccc1 (relative stereo) [Example 8A, trans-4-[(3-Hydroxyphenyl)-3,4-dimethyl-1-piperidine]-2-phenyl butanoic acid, ethyl ester hydrochloride]	0.70	35	0.02 mg/kg	–	88%	95%	2.01 nM	–
C[C@H]1CN(CCC(C(=O)O)c2ccccc2)CC[C@@]1(C)c1cccc(O)c1 (relative stereo) [Example 8B, trans-4-[(3-Hydroxyphenyl)-3,4-dimethyl-1-piperidine]-2-phenyl butanoic acid hydrochloride]	0.64	53	0.012 mg/kg	–	100%	100%	0.27 nM	–
C[C@H]1CN(CCC(C(=O)O)C2CCCCC2)CC[C@@]1(C)c1cccc(O)c1 (relative stereo) [Example 9B, hydrochloride]	1.50	75	0.02 mg/kg	0.66 nM	90%	93%	–	–
C[C@H]1CN(CCC(C(=O)N(C)C)c2ccccc2)CC[C@@]1(C)c1cccc(O)c1 (relative stereo) [Example 10, trans-4-[(3-hydroxyphenyl)-3,4-dimethyl-1-piperidinyl]-2-phenyl-N,N-dimethylbutanamide hydrochloride]	0.54	9	0.06 mg/kg	1.17 nM	89%	100%	–	–
CNC(=O)CNC(=O)C(CCN1CC[C@@](C)(c2cccc(O)c2)[C@@H](C)C1)c1ccccc1 (relative stereo) [Example 13, N-(methyl)-2-[[4-[4-(3-hydroxyphenyl)-3,4-dimethyl-1-piperidinyl]-2-phenyl-1-oxobutyl]amino]acetamide monohydrochloride]	–	> 125	0.32 mg/kg	–	94%	95%	0.43 nM	–
C[C@H]1CN(CCC(C(=O)NCC(N)=O)c2ccccc2)CC[C@@]1(C)c1cccc(O)c1 (relative stereo) [Example 14, trans-N-(2-amino-2-oxoethyl)-4-[3,4-dimethyl-4-(3-hydroxyphenyl)-1-piperidinyl]-2-phenylbutanamide monohydrochloride monohydrate]	–	> 43	0.92 mg/kg	6.42 nM	–	93%	–	inhibition at 0.01 µM (mu receptor; [2]): 87%
CC(C)COC(=O)CNC(=O)C(Cc1ccccc1)CN1CC[C@@](C)(c2cccc(O)c2)[C@@H](C)C1 (single isomer, unassigned) [Example 97D]	–	–	–	–	–	–	–	AD50 (opioid receptor; listed as 97D**, 1.25 mg/kg): 32; AD50 (opioid receptor; listed as 97D*, 1.25 mg/kg): 12.7; Ratio (AD50 mouse writhing test / ED50 mouse diarrhea test) ([1]; listed as 97D*): 317; Ratio (AD50 mouse writhing test / ED50 mouse diarrhea test) ([1]; listed as 97D**): 53; ED50 (diarrhea) ([1]; listed as 97D**): 0.6; ED50 (diarrhea) ([1]; listed as 97D*): 0.04
C[C@H]1CN(CC(Cc2ccccc2)C(=O)NCC(=O)OC2CCCCC2)CC[C@@]1(C)c1cccc(O)c1 (stereo partly shown) [Example 52, 2-[[2-(phenylmethyl)-1-oxo-3-[4-(3-hydroxyphenyl)-3,4-dimethyl-1-piperidinyl]propyl]amino]-ethanoic acid cyclohexyl ester monohydrochloride]	–	40	0.2 mg/kg	–	–	–	–	inhibition at 0.01 µM (mu receptor; 20 min, 10 nM test compound, [3H] naloxone 0.5 nM, read-out: % displacement at 10 nM): 53%; inhibition at 0.1 µM (mu receptor; 20 min, 100 nM test compound, [3H] naloxone 0.5 nM, read-out: % displacement at 100 nM): 92%
CCOC(=O)CCCNC(=O)C(Cc1ccccc1)CN1CC[C@@](C)(c2cccc(O)c2)[C@@H](C)C1 (stereo partly shown) [Example 61, 4-[[3-[4-(3-hydroxyphenyl)-3,4-dimethyl-1-piperidinyl]-1-oxo-2-(phenylmethyl)propyl]-amino]butanoic acid ethyl ester monohydrochloride monohydrate]	–	66	0.05 mg/kg	–	98%	99%	1.91 nM	–

From patent US5250542A, “Peripherally selective piperidine carboxylate opioid antagonists” (Eli Lilly and Company, priority 1992, dated 1993)
